Data reported in patent US20100048462A1, “TRUNCATED PTH PEPTIDES WITH A CYCLIC CONFORMATION” (Zealand Pharma A/S, priority 2006, published 2010).
“Also recorded” adds a separate entry of the source. Bridge positions count the residues as written; N and C are the ends. Square brackets hold non-standard residues; d marks the D form. Peptide text beside a SMILES is read from it. I, II: the chains in the order shown. hArg = N=C(N)NCCCC[C@H](N)C(=O)O; Ac5c = NC1(C(=O)O)CCCC1; Aib = CC(C)(N)C(=O)O

Legend:
ovariectomized (OVX) rat = test: OVX rat model, bone mineral density by DEXA; type: in vivo; design: increase in BMD in the femoral shaft compared to vehicle-treated OVX animals: unit not given here; conditions: for BMD proximal tibia (18% bone loss in OVX animals): FIG. 6, SEQ ID NO: 19 20-320, SEQ ID NO: 33 5 nmol/kg; for BMD proximal tibia (18% bone loss in OVX animals) / BMD in lumbar vertebrae L1-L2 relative to vehicle-treated OVX and sham animals: s.c. 6 weeks; for BMD in lumbar vertebrae L1-L2 relative to vehicle-treated OVX and sham animals: FIG. 7; for BMD compared to vehicle-treated OVX animals: all doses; for increase in BMD in the femoral shaft compared to vehicle-treated OVX animals / BMD in the femoral shaft: FIG. 9; for BMD in the femoral shaft: site rich in cortical bone
Text: The ovariectomiced(OVX) rat may be used to test the effect of the PTH analogues on osteopenia/osteoporosis in vivo. The OVX rat develop osteopenia due to ovarian hormone deficiency. Osteopenia can be detected as early as 14 days post OVX, increase for the next 100 days and then stabilized (Wronski T J et al., Calcif. Tissue Int., 43(3): 179-183, 1988). The OVX rat model is considered the “golden standard” by both authorities and industry as a model for osteoporosis (Peter C, Rodan G A. Preclinical safety profile of alendronate. Int j Clin Pract Suppl 1999; 101:3-8, and Stewart A F, Cain R L, Burr D B, Jacob D, Turner C H, Hock J M).
One hundred and seventy-eight female Fisher rats were used for the experiment. Initially the animals were housed in Macrolon type 3 cages (2 rats/cage) under controlled conditions (20° C., 55-85% humidity) following a 12:12-hrs light/dark cycle with light on at 6 am. The animals were fed ad libitum with standard Altromin No. 1324 diet (Chr. Petersen, Ringsted, Denmark). The animals had free access to drinking water (domestic quality tap water added citric acid to pH≈3). At the time of inclusion the animals were 6 months old.
The week before OVX the animals were stratified according to body weight into two groups that were subjected to either OVX (140 animals) or sham operation (38 animals). Rats were anaesthetized with Hypnorm-Dormicum and the ovariectomy was performed through a midline laparotomy. Sham-operated animals were subjected to midline laparotomy, and the ovaries were exposed but not removed (sham). This group served as an age matched non-osteoporotic control group. A microchip was implanted into each rat during surgery, in order to allow identification of the animals.
To allow osteopenia to develop before treatment start, animals were housed for 7 weeks (pre-treatment period) without pharmacological treatment. At the end of the pre-treatment period, sham- and OVX-operated rats were stratified according to bodyweight and divided into six groups of 13-20 animals each (Table 7). At this point, one OVX group (N=20) and one sham group (N=20) were sacrificed. These control groups established baseline levels of bone mineral density (BMD). Furthermore, samples were stored for possible later analysis of bone markers, bone strength, histomorphometry and μCT scans.
For the following 6 weeks one sham group and one OVX group were subjected to vehicle administration (40 mM sodium acetate, 45 mM histidine and 3.9% mannitol, pH 5.5, 300 mOsm/kg). Five OVX groups were treated with increasing doses of the cyclic PTH(1-17) analogue SEQ ID NO: 19. Another OVX group was treated with SEQ ID NO: 33 (Table 7). All drugs were given as s.c. injections. After 6 weeks of treatment the animals were sacrificed. Spine, tibia and femur were collected for analysis of BMD by DEXA-scan and bone samples were stored for later bone strength measurements.
Lumbar vertebrae (L4-L5-L6-S1), left femur and tibia were collected, cleaned, packed in saline moistened gaze in a tube and stored at −20° C. for later ex vivo bone strength measurements. Right femur and tibia as well as lumbar vertebrae (T13-L1-L2-L3) and caudal vertebrae (S2-S3-C1-C2-C3) were collected, cleaned and stored in 70% ethanol for analysis of bone mineral density (BMD) and possible later histomorphometry and/or μCT scanning.
Ex vivo BMD measurements were performed at the end of the study using a Lunar Piximus II densitometer (GE Healthcare, Chalfont St. Giles, UK) with a precision of 1.5%. Calibration of the instrument was performed with an aluminium/Lucite phantom.
Tibiae, femora and lumbar (L1-L2) and sacral/caudal (S3-C1) spine fragments were placed on the imaging positioning tray and scanned four times. All specimens were placed in a similar orientation for correct comparison. Regions of interest (ROI) were generated on the scans using the Piximus image analysis software provided with the instrument. […]

CYP2D6 = CYP2D6 (Homo sapiens, UniProt P10635); test: CYP2D6 inhibition in pooled human liver microsomes; type: in vitro ADME; design: Pooled human liver microsomes (HLM, final concentration 0.05 mg protein/mL); tissue BD Biosciences 452161; host or cells: pooled human liver microsomes
Sequence of CYP2D6 (P10635 whole entry): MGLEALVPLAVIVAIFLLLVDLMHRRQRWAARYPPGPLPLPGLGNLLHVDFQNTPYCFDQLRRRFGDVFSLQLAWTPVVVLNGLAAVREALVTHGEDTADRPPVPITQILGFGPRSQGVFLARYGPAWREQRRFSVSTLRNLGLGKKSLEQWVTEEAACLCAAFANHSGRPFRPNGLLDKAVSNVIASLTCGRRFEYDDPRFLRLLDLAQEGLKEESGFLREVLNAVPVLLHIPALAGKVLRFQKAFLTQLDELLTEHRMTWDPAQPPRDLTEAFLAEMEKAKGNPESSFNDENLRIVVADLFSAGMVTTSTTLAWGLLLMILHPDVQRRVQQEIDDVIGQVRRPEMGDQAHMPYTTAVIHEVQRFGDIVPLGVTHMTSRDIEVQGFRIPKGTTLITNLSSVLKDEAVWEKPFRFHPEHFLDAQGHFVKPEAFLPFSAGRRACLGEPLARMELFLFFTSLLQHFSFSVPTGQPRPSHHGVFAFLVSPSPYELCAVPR
How it was run: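 Pooled HLM (0.05 mg/mL) in 0.1 M KPi pH 7.4 with 5 μM dextromethorphan and 10 μM test compound, preincubated 5 min at 37 °C, then started with NADPH-regenerating system for 5 min. Dextrorphan quantified by LC/MS/MS; activity expressed as % of vehicle; <70% considered significant.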

SMILES | bone mineral densities at the lowest dose (ovariectomized (OVX) rat; 20 nmol/kg/d) | bone mineral density versus vehicle-treated ovariectomized rats, regardless of site (ovariectomized (OVX) rat; 20 nmol/kg/d to 320 nmol/kg/d s.c., 6 weeks) | BMD proximal tibia (18% bone loss in OVX animals) (ovariectomized (OVX) rat; OVX rats) | BMD in lumbar vertebrae L1-L2 relative to vehicle-treated OVX and sham animals (ovariectomized (OVX) rat; OVX rats) | BMD compared to vehicle-treated OVX animals (ovariectomized (OVX) rat; FIG. 8) | BMD over sham control levels (ovariectomized (OVX) rat; FIG. 8, doses higher than 20 nmol/kg/d) | increase in BMD in the femoral shaft compared to vehicle-treated OVX animals (ovariectomized (OVX) rat) | BMD in the femoral shaft (ovariectomized (OVX) rat) | bone-anabolic activity in cortical and trabecular bone (ovariectomized (OVX) rat; OVX rats) | bone mineral density versus vehicle-treated sham-operated rats (ovariectomized (OVX) rat; doses greater than 20 nmol/kg/d) | effect on CYP2D6 activity in words (CYP2D6) | CYP2D6 activity (% of vehicle) (CYP2D6; 10 μM compound, dextrorphan formation rate) | bone mineral density versus vehicle-treated ovariectomized rats, all sites tested (ovariectomized (OVX) rat; 5 nmol/kg/d s.c., 6 weeks)
CC[C@H](C)[C@H](NC(=O)[C@H](CCC(=O)O)NC(=O)C(C)(C)NC(=O)[C@@H](NC(=O)C1(N)CCCC1)C(C)C)C(=O)N[C@@H](CCC(N)=O)C(=O)N[C@@H](CC(C)C)C(=O)N[C@@H](CC(C)C)C(=O)N[C@@H](Cc1c[nH]cn1)C(=O)N[C@@H](CCC(N)=O)C(=O)N[C@@H](CCCCNC(=N)N)C(=O)N[C@@H](C)C(=O)N[C@H]1CCCCNC(=O)C[C@@H](C(N)=O)NC(=O)[C@H](CC(N)=O)NC(=O)[C@H](CC(C)C)NC(=O)[C@H](Cc2c[nH]c3ccccc23)NC1=O [SEQ ID NO: 19, H-Ac5c-Val-Aib-Glu-Ile-Gln-Leu-Leu-His-Gln-Har-Ala-Lys( )-Trp-Leu-Asn-Asp( )-NH2] (H-[Ac5c]V[Aib]EIQLLHQ[hArg]AKWLND-NH2; lactam 13-17) | at least normalization | significantly higher bone mineral density | completely reversed | improved | significantly increased | significantly increased over sham control levels | about 81 | improved | showed bone-anabolic activity | bone mineral densities higher than in vehicle-treated sham-operated rats | absence of any inhibitory effect on CYP2D6 activity | 90 % of vehicle | –
CC[C@H](C)[C@H](NC(=O)[C@H](CCC(=O)O)NC(=O)C(C)(C)NC(=O)[C@@H](NC(=O)C1(N)CCCC1)C(C)C)C(=O)N[C@@H](CCC(N)=O)C(=O)N[C@@H](CC(C)C)C(=O)N[C@@H](CCSC)C(=O)N[C@@H](Cc1c[nH]cn1)C(=O)N[C@@H](CCC(N)=O)C(=O)N[C@@H](CCCCNC(=N)N)C(=O)N[C@@H](C)C(=O)N[C@H]1CCCCNC(=O)C[C@@H](C(N)=O)NC(=O)[C@H](CC(C)C)NC(=O)[C@H](Cc2c[nH]c3ccccc23)NC(=O)[C@@H](NC(=O)[C@H](C)NC(=O)[C@H](CCCCNC(=N)N)NC(=O)[C@H](CCC(N)=O)NC(=O)[C@H](Cc2c[nH]cn2)NC(=O)[C@H](CCSC)NC(=O)[C@H](CC(C)C)NC(=O)[C@H](CCC(N)=O)NC(=O)[C@@H](NC(=O)[C@H](CCC(=O)O)NC(=O)C(C)(C)NC(=O)[C@@H](NC(=O)C2(N)CCCC2)C(C)C)[C@@H](C)CC)CCCCNC(=O)C[C@@H](C(N)=O)NC(=O)[C@H](CC(C)C)NC(=O)[C@H](Cc2c[nH]c3ccccc23)NC1=O [SEQ ID NO: 33, (H-Ac5c-Val-Aib-Glu-Ile-Gln-Leu-Met-His-Gln-Har-Ala-Lys( )-Trp-Leu-Asp( )-NH2)2] (I: H-[Ac5c]V[Aib]EIQLMHQ[hArg]AKWLD-NH2 / II: H-[Ac5c]V[Aib]EIQLMHQ[hArg]AKWLD-NH2; amide I:13-II:16, I:16-II:13 (inferred)) | – | – | completely reversed | improved | significantly increased | – | about 81 | improved | – | – | – | – | significant increases; also recorded: significantly increased
